Non-standard residues stand in square brackets, D forms with d. Residues, ends and D or L forms follow the SMILES beside them. *: point of attachment. Phenylacetyl(2,3,4,5,6-F5) = O=C(Cc1c(F)c(F)c(F)c(F)c1F)*; Phe(F5) = N[C@@H](Cc1c(F)c(F)c(F)c(F)c1F)C(=O)O; Phe(4-Cl) = N[C@@H](Cc1ccc(Cl)cc1)C(=O)O; hArg = N=C(N)NCCCC[C@H](N)C(=O)O; 12Ado = NCCCCCCCCCCCC(=O)O; Nle = CCCC[C@H](N)C(=O)O; Abu = CC[C@H](N)C(=O)O
Key:
[1] = tested on: stomach cancer N87 xenograft; assay: Xenograft tumor growth in nude mice, N87; type: in vivo; conditions: for % Inhibition: vs control
Experimental: (§1) The peptides' activity was compared with GHRH antagonist MIA-602. All statistical analyzses were performed from comparing GHRA antagonists to non-treated tumor (control).
(§2) Peptides and chemicals. GHRH antagonists MIA-602 and AVR-GHRH antagonists (see Table 2 above) were synthesized by solid phase methods and purified by HPLC. The peptides were dissolved in DMSO and further diluted in 10% 1,2-propanediol. The final concentration of peptides was 50 µg/ml in 10% 1,2-propanediol containing 0.1% of DMSO.
(§3) Cell culture. Human cancer cell lines including pancreatic (PANC-1 and CFPAC-1), lung (HCC827 and H460), stomach (NCI-N87), prostate (PC3), brest (MX-1 and HCC-1806), colorectal (HT-29), and ovarian (SK-OV-3 and OVCAR-3) were obtained from the American Type Culture Collection (ATCC) and cultured at 37° C. in a humidified 95% air/5% CO2 atmosphere in the medium recommended by ATCC.
Xenograft models of human cancers in nude mice. Female athymic (NCr nu/nu) nude mice, 5- to 6-weeks-old, obtained from the Envigo labs (Tampa, Fla.), were housed in laminar airflow cabinets under pathogen-free conditions with a 12-h light/12-h dark schedule, and were fed autoclaved standard chow and water. To generate mice with xenografted tumors, tumor xenografts were initiated by subcutaneous (s.c.) injection of 107 human cancer cells into female nude mice. After about 4 weeks the resulting tumors were dissected and collected after removing necrosis tissues. The tumors were then cut into particles with size of 3 mm3 and transplanted s.c. by trocar needle into experimental animals. When tumors grew to the size of 50-60 mm3 (by volume), […] of 5 μg of GHRH antagonists MIA-602 or AVR-compounds (2-10 μg as indicated), or vehicle solutions (0.1% DMSO in 10% 1,2-propanediol) respectively. Tumor sizes were measured weekly.
(§4) Statistical analysis. One-way ANOVA followed by Bonferroni comparison were performed. Data are expressed as Mean±SEM. To determine statistical significance between animal groups, two-tailed Student's t-test was conducted. Differences were considered significant when p<0.05.
(§5) Results. […] FIG. 1A-N represents in vivo inhibition of tumor growth during the treatment with GHRH antagonist MIA-602 and selected AVR antagonists in nude mice xenografted with various human tumors including pancreatic cancer PANC-1 (FIG. 1A) and CFPAC-1 (FIG. 1I); lung cancer HCC827 (FIGS. 1B, C) and H460 (FIG. 1H); stomach cancer N87 (FIGS. 1D-F); colon cancer HT-29 (FIG. 1G); breast cancer MX-1 and HCC-1806 (FIGS. 1J, K); ovarian cancer SK-OV-3 and OVACAR-3 (FIGS. 1 L, M) and prostate cancer PC3 (FIG. 1N). See also Table 5.

[2] = tested on: NCI-N87 stomach cancer cells; assay: In vitro cell viability (CellTiter 96), N87; type: cell-based, human; conditions: for In vitro relative inhibitory potency in comparison to MIA-602, NCI-N87: Table 3B, 5 μM for 72 H, MIA-602 = 1
In short: (§6)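 Cells grown to ~60% confluence, serum-starved 24 h in 0.5% FBS medium, then exposed to compounds at 5 μM (some at 2 μM) or 0.1% DMSO vehicle for 72 h, in quintuplicate, medium changed every 48 h. Viability read by MTS-type CellTiter 96 AQueous assay; values are inhibitory potency relative to MIA602.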

[3] = tested on: lung cancer HCC827 xenograft; assay: Xenograft tumor growth in nude mice, HCC827; type: in vivo; conditions: for % Inhibition: vs control
Experimental: as §1, §2, §3
Xenograft models of human cancers in nude mice. Female athymic (NCr nu/nu) nude mice, 5- to 6-weeks-old, obtained from the Envigo labs (Tampa, Fla.), were housed in laminar airflow cabinets under pathogen-free conditions with a 12-h light/12-h dark schedule, and were fed autoclaved standard chow and water. To generate mice with xenografted tumors, tumor xenografts were initiated by subcutaneous (s.c.) injection of 107 human cancer cells into female nude mice. After about 4 weeks the resulting tumors were dissected and collected after removing necrosis tissues. The tumors were then cut into particles with size of 3 mm3 and transplanted s.c. by trocar needle into experimental animals. When tumors grew to the size of 50-60 mm3 (by volume), mice were randomized into groups and treated daily for 4-8 weeks by subcutaneous administration of 5 μg of GHRH antagonists MIA-602 or AVR-compounds (2-10 μg as indicated), or vehicle solutions (0.1% DMSO in 10% 1,2-propanediol) respectively. Tumor sizes were measured weekly.
as §4, §5

[4] = tested on: CFPAC-1 pancreatic cancer cells; assay: In vitro cell viability, CFPAC-1; type: cell-based, human; conditions: for In vitro relative inhibitory potency in comparison to MIA-602, CFPAC-1: Table 3B, 5 μM for 72 H, MIA-602 = 1
In short: as §6

[5] = Table 4D, Stomach Ca N87, 10 weeks, 2 μg/day s.c.
[6] = Table 4F, Stomach Ca N87, 4 weeks, 2 μg/day s.c.
[7] = antagonist 5 μM for 72 h, cell proliferation assay, MIA602 = 1
[8] = Table 4B, Lung Ca HCC827, 7 weeks, 5 μg/day s.c.
[9] = Table 4F, Stomach Ca N87, 4 weeks, 5 μg/day s.c.
[10] = Table 4C, Lung Ca HCC827, 8 weeks, 2.5 μg/day s.c.
[11] = Table 4C, Lung Ca HCC827, 8 weeks, 5 μg/day s.c.
[12] = Table 4C, Lung Ca HCC827, 8 weeks, 10 μg/day s.c.

SMILES	Tumor Size (mm^3) [1, 5] [mm^3]	% Inhibition [1, 5] [%]	Tumor Growth % [1, 6] [%]	% Inhibition [1, 6] [%]	In vitro relative inhibitory potency in comparison to MIA-602, NCI-N87 [2]	relative inhibitory potency in comparison to MIA-602, Stomach N87 [2, 7]	Tumor Growth % [3, 8] [%]	% Inhibition [3, 8] [%]	In vitro relative inhibitory potency in comparison to MIA-602, CFPAC-1 [4]	relative inhibitory potency in comparison to MIA-602, Pancreatic CFPAC-1 [4, 7]	Tumor Growth % [1, 9] [%]	% Inhibition [1, 9] [%]	Tumor Growth % [3, 10] [%]	% Inhibition [3, 10] [%]	Tumor Growth % [3, 11] [%]	% Inhibition [3, 11] [%]	Tumor Growth % [3, 12] [%]	% Inhibition [3, 12] [%]
CCCC[C@H](NC(=O)[C@@H](NC(=O)[C@H](CC(=O)O)NC(=O)[C@H](CCC(N)=O)NC(=O)[C@H](CC(C)C)NC(=O)[C@H](CC(C)C)NC(=O)[C@H](CCCCN)NC(=O)[C@H](CCCNC(=N)N)NC(=O)[C@H](C)NC(=O)[C@H](CO)NC(=O)[C@H](CC(C)C)NC(=O)[C@H](CCC(N)=O)NC(=O)[C@H](CC)NC(=O)[C@H](CC(C)C)NC(=O)[C@@H](NC(=O)[C@H](CCCCN)NC(=O)[C@H](CCCNC(=N)N)NC(=O)[C@H](Cc1ccc(OC)cc1)NC(=O)[C@H](CCCCNC(=N)N)NC(=O)[C@H](C)NC(=O)[C@@H](NC(=O)[C@H](Cc1c(F)c(F)c(F)c(F)c1F)NC(=O)[C@@H](NC(=O)[C@H](C)NC(=O)[C@H](CC(=O)O)NC(=O)[C@@H](CCCNC(=N)N)NC(=O)[C@H](Cc1ccc(O)cc1)NC(=O)CCCCCCCCCCCNC(=O)Cc1c(F)c(F)c(F)c(F)c1F)[C@@H](C)CC)[C@@H](C)O)C(C)C)[C@@H](C)CC)C(=O)N[C@H](CCCNC(=N)N)C(=O)N[C@@H](CCCCNC(=N)N)C(=O)NC [AVR-235] ({Phenylacetyl(2,3,4,5,6-F5)-12Ado}-Y[dR]DAI[Phe(F5)]TA[hArg]Y(Me)RKVL[Abu]QLSARKLLQDI[Nle][dR][hArg]-NHMe)	558.60	54.4	312.80	64.9	1.67	2.911	771.0	41.2	1.497	1.399								
CCCC[C@H](NC(=O)[C@@H](NC(=O)[C@H](CC(=O)O)NC(=O)[C@H](CCC(N)=O)NC(=O)[C@H](CC(C)C)NC(=O)[C@H](CC(C)C)NC(=O)[C@H](CCCCN)NC(=O)[C@H](CCCNC(=N)N)NC(=O)[C@H](C)NC(=O)[C@H](CO)NC(=O)[C@H](CC(C)C)NC(=O)[C@H](CCC(N)=O)NC(=O)[C@H](CC)NC(=O)[C@H](CC(C)C)NC(=O)[C@@H](NC(=O)[C@H](CCCCN)NC(=O)[C@H](CCCNC(=N)N)NC(=O)[C@H](Cc1ccc(OC)cc1)NC(=O)[C@H](CCCCNC(=N)N)NC(=O)[C@H](CC(N)=O)NC(=O)[C@@H](NC(=O)[C@H](Cc1ccc(Cl)cc1)NC(=O)[C@@H](NC(=O)[C@H](C)NC(=O)[C@H](CC(=O)O)NC(=O)[C@@H](CCCNC(=N)N)NC(=O)[C@H](Cc1ccc(O)cc1)NC(=O)CCCCCCCCCCCNC(=O)Cc1c(F)c(F)c(F)c(F)c1F)[C@@H](C)CC)[C@@H](C)O)C(C)C)[C@@H](C)CC)C(=O)N[C@H](CCCNC(=N)N)C(=O)N[C@@H](CCCCNC(=N)N)C(=O)NCCCCCCCCCCCC(N)=O [AVR-333, 5FPhAC-Ada-Tyr-DArg-Asp-Ala-Ile-Cpa-Thr-Asn-Har-Tyr(Me)-Arg-Lys-Val-Leu-Abu-Gln-Leu-Ser-Ala-Arg-Lys-Leu-Leu-Gln-Asp-Ile-Nle-DArg-Har-Ada-NH2] ({Phenylacetyl(2,3,4,5,6-F5)-12Ado}-Y[dR]DAI[Phe(4-Cl)]TN[hArg]Y(Me)RKVL[Abu]QLSARKLLQDI[Nle][dR][hArg][12Ado]-NH2)	454.00	62.9			1.4		407.5	68.9	2.288									
CCCC[C@H](NC(=O)[C@@H](NC(=O)[C@H](CC(=O)O)NC(=O)[C@H](CCC(N)=O)NC(=O)[C@H](CC(C)C)NC(=O)[C@H](CC(C)C)NC(=O)[C@H](CCCCN)NC(=O)[C@H](CCCNC(=N)N)NC(=O)[C@H](C)NC(=O)[C@H](CO)NC(=O)[C@H](CC(C)C)NC(=O)[C@H](CCC(N)=O)NC(=O)[C@H](CC)NC(=O)[C@H](CC(C)C)NC(=O)[C@@H](NC(=O)[C@H](CCCCN)NC(=O)[C@H](CCCNC(=N)N)NC(=O)[C@H](Cc1c(F)c(F)c(F)c(F)c1F)NC(=O)[C@H](CCCCNC(=N)N)NC(=O)[C@H](C)NC(=O)[C@@H](NC(=O)[C@H](Cc1ccc(Cl)cc1)NC(=O)[C@@H](NC(=O)[C@H](C)NC(=O)[C@H](CC(=O)O)NC(=O)[C@@H](CCCNC(=N)N)NC(=O)[C@H](Cc1ccc(O)cc1)NC(=O)CCCCCCCCCCCNC(=O)Cc1c(F)c(F)c(F)c(F)c1F)[C@@H](C)CC)[C@@H](C)O)C(C)C)[C@@H](C)CC)C(=O)N[C@H](CCCNC(=N)N)C(=O)N[C@@H](CCCCNC(=N)N)C(=O)NCCCCCCCCCCCC(N)=O [AVR-353, 5FPhAC-Ada-Tyr-DArg-Asp-Ala-Ile-Cpa-Thr-Ala-Har-5FPhe-Arg-Lys-Val-Leu-Abu-Gln-Leu-Ser-Ala-Arg-Lys-Leu-Leu-Gln-Asp-Ile-Nle-DArg-Har-Ada-NH2] ({Phenylacetyl(2,3,4,5,6-F5)-12Ado}-Y[dR]DAI[Phe(4-Cl)]TA[hArg][Phe(F5)]RKVL[Abu]QLSARKLLQDI[Nle][dR][hArg][12Ado]-NH2)			433.70	51.4	3.404		380.3	71.0	2.922		312.20	65.0	545.65	35.1	420.79	50.0	359.16	57.3
